The species entered for this test is Oryctolagus cuniculus. Description: Inhibition of rabbit platelet aggregation induced by PAF (Platelet activating factor). In kind it is functional.

The results in this text go back to ChEMBL document CHEMBL1123599, “Diketopiperazines as a new class of platelet-activating factor inhibitors” (J Med Chem, 1987).

Broadly, the IC50 is the concentration that inhibits the measured activity by half.

In turn, `CSCC[C@H]1NC(=O)[C@@H]([C@@H](C)c2cn(C)c3ccccc23)NC1=O` came in with an IC50 of 3600 nM.
Then `CSC[C@@H]1NC(=O)[C@H](Cc2cn(C)c3ccccc23)NC1=O`, with 250000 nM; and `CSCC[C@H]1NC(=O)[C@@H]([C@H](C)c2cn(C)c3ccccc23)NC1=O`, with 700 nM.
Under `CSC[C@@H]1NC(=O)[C@@H](Cc2cn(C)c3ccccc23)NC1=O` stands 36000 nM; under `CSCC[C@H]1NC(=O)[C@@H]([C@H](C)c2cccc3ccccc23)NC1=O`, 180 nM; under `COc1cc([C@H]2CC[C@H](c3cc(OC)c(OC)c(OC)c3)O2)cc(OC)c1OC`, 320 nM.
With `CSC[C@H]1NC(=O)[C@H](Cc2cn(C)c3ccccc23)NC1=O`, the 50% inhibitory concentration (IC50) was 140000 nM.
For `CSCCC1NC(=O)C(Cc2cn(C)c3ccccc23)NC1=O` (stereo unspecified), the IC50 amounted to 2300 nM.
Then `CSC[C@H]1NC(=O)[C@@H](Cc2cn(C)c3ccccc23)NC1=O`, with 7900 nM.
Under `CSCC[C@H]1NC(=O)[C@@H]([C@@H](C)c2cccc3ccccc23)NC1=O` stands 1900 nM.
`CSC[C@@H]1N=C(C2=C(O)C=CC2)[C@H]([C@@H](C)[C@@H]2C(=O)N(C)c3ccccc32)NC1=O`: the IC50 worked out at 370 nM.
